Test results published in patent US7868135B2, “Compositions of lipopeptide antibiotic derivatives and methods of use thereof” (priority 2003, dated 2011).

How the values were obtained:
Staphylococcus aureus = format: cell-based; details: for Post Antibiotic Effect (hours) 0.5 × MIC: exposure one hour at 0.5 × MIC, S. aureus log phase; for Post Antibiotic Effect (hours) 1 × MIC: exposure one hour at 1 × MIC; for Post Antibiotic Effect (hours) 2 × MIC: exposure one hour at 2 × MIC; for Post Antibiotic Effect (hours) 4 × MIC: exposure one hour at 4 × MIC
Procedure: An exemplary pharmacokinetic parameter to aid in characterizing the properties of lipopeptide derivative compounds of the disclosure is post-antibiotic effect (PAE) of a lipopeptide derivative. For example, a bacterial culture with an initial count of 10^6 to 10^7 colony forming units per ml (CFU/ml) is treated with a certain concentration of lipopetide derivative for a certain time and a parallel (control) culture is left untreated. After treatment, the lipopetide derivative is removed from the culture (e.g., by dilution 1:1000 in fresh, lipopetide derivative-free medium), and the untreated culture is manipulated in the same way. Then the cultures are further incubated and monitored for bacterial growth over time. […] By way of background and not wishing to be bound by theory, a lipopeptide derivative having a measurable PAE activity will likely provide additional time for the host immune system to remove bacteria that might have survived antibiotic treatment and reproduced after the antibiotic is degraded, removed or filtered from the circulatory system. A longer PAE can influence the clinical outcome of antimicrobial therapy (i.e., a lower dose of a lipopetide derivative may be used to treat an infection or the frequency of a dosing regimen can be reduced).
After removal of the lipopeptide compounds, bacterial titre was determined each hour to monitor bacterial re-growth. The PAE duration is defined as the difference in time required for antimicrobial exposed bacterial cells versus unexposed bacterial cells to achieve an increase of 1 log10 unit in CFU/mL.

in vivo = details: male, Sprague Dawley, rat, plasma, iv, 10 mg/kg
Procedure: Yet other exemplary in vivo models can be used to characterize the pharmacokinetics and pharmacodynamic parameters of antimicrobial compounds of this disclosure. Some parameters that can be measured include an in vivo half-life of a compound, elimination rate and clearance, volume of distribution, and bioavailability. For example, briefly, compounds can be administered as a single i.v. or oral (p.o.) dose in mice or rats. At various time points (ranging from 1 minute to 72 hours), blood from treated animals is collected and the concentration of lipopeptide derivative in the ex vivo plasma can be quantified by, for example, liquid chromatography with mass spectrometric detection (LC/MS). After quantification, pharmacokinetics parameters can be calculated using methods known in the art, such as a one compartment model with mono-exponential decay and linear regression analysis (see, e.g., Fantin et al., Antimicrob. Agents Chemotherap. 35: 1413. 1991).
A pharmacokinetic parameter that can be measured, and which aids in determining efficacy, after a single i.v. administration of an antimicrobial lipopeptide derivative of the instant disclosure is the systemic half-life of the compound. Briefly, test compounds were dissolved in a 5% mannitol solution (pH was then adjusted) to a concentration of 1 mg/mL (w/v). A single intravenous injection in the lateral caudal vein of Swiss CD1 mice (5 to 6 weeks old, female) or Sprague Dawley rats (male) was used to administer the lipopeptide derivative at a final dose of 10 mg/kg. At various time points (ranging from about 4 minutes to about 24 hours for mice, and 48 or 72 hours for rats) mice were sacrificed and blood was harvested. The concentration of lipopeptide derivative in ex vivo plasma was quantified using liquid chromatography (LC) with mass spectrometric detection (MS).

[1] = Acute toxicity, maximum tolerated dose (MTD); details: Swiss CD1, mouse, in vivo, iv
Procedure: Another measure of toxicity is the maximum tolerated dose (MTD), which is determined as a dose level that is not accompanied by mortality or life-threatening toxicity. The dose ratio between toxic and therapeutic effect is the therapeutic index. […] The data obtained from these cell culture assays and animal studies can be used in formulating a dosage range that is not toxic for use in human subjects. […] The dosage may vary within this range depending upon the dosage form employed and the route of administration utilized. The exact formulation, route of administration and dosage can be chosen by the individual physician in view of the patient's condition or need thereof (see, e.g., Fingl et al., 1975, In: The Pharmacological Basis of Therapeutics, Chapter 1).
For example, to examine acute toxicity, lipopeptide antibiotics of the invention can be tested in an animal model, such as Swiss CD1 mice, to determine the MTD. In certain embodiments, the animals used to test toxicity of a particular compound can be approximately 5-6 weeks old at the start of the experiment and weigh 22-26 g. The lipopeptides may be administered intravenously (i.v.) into, for example, the caudal tail vein at dose levels that range from about 50 to about 500 mg/kg, or from about 75 to about 250 mg/kg, or from about 100 to about 200 mg/kg, or at a dose range at or below 100 mg/kg. The animals are generally observed immediately after administration, 1-2 hours post administration, 5-8 hours post administration, and once daily thereafter. Observations include both the activity level of the mouse as well as any physical side effects from the administered dose. The animal weight is recorded on day 0 (immediately before dosing) and on day 7.

[2] = system: Staphylococcus aureus (SAU0017); experiment: Thigh infection model in neutropenic mice; format: in vivo; details: neutropenic Swiss CD1 mice, i.m. S. aureus, i.v. treatment two hours post-infection, thigh CFU at 24 hours
Procedure: Other exemplary in vivo models of infection that may be used to assess, for example, the efficacy of an antimicrobial lipopeptide of the instant disclosure include the following: (A) a mouse (murine) model of lung infection (pneumonia) wherein the bacterial infection is administered intranasally (i.n.); (B) a murine thigh muscle model wherein the bacterial infection is administered intramuscularly (i.m.) in normal or neutropenic (immunocompromised) mice; and (C) a combination murine thigh muscle model (i.m. infection)/lung (i.n.) infection.

[3] = system: Staphylococcus aureus (MSSA); details: 24 h
Method in brief: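 Broth microdilution MIC per NCCLS M7-A6 with doubling serial dilutions, in cation-adjusted Mueller-Hinton broth supplemented with 0.625 mM calcium.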

| Structure (SMILES) | MIC used for the PAE experiment (Staphylococcus aureus) | Post Antibiotic Effect (hours) 0.5 × MIC (Staphylococcus aureus) | Post Antibiotic Effect (hours) 1 × MIC (Staphylococcus aureus) | Post Antibiotic Effect (hours) 2 × MIC (Staphylococcus aureus) | Post Antibiotic Effect (hours) 4 × MIC (Staphylococcus aureus) | half-life (in vivo) | MTD at 7 days [1] | ED50 [2] | MIC [3] |
| --- | --- | --- | --- | --- | --- | --- | --- | --- | --- |
| CCCCCCCCCCCCCCC(=O)NC(CC(=O)O)C(=O)NC1C(=O)N2CCCCC2C(=O)NC(C(C)C(=O)O)C(=O)NC(CC(=O)O)C(=O)NCC(=O)NC(CC(=O)O)C(=O)NCC(=O)NC(C(C)NC(=O)CNC(=O)[C@@H](N)CCCCN)C(=O)NC(C(C)C)C(=O)N2CCCC2C(=O)NC1C (stereo partly shown) [Compound 4, C15-Amphomycin-9-Gly-Lys] | 1 mg/L | 0.6 h | 0.7 h | 1.9 h | 3.0 h | 1.09 h | 200 to 400 mg/kg | – | – |
| CCCCCCCCCCCCCCC(=O)NC(CC(=O)O)C(=O)NC1C(=O)N2CCCCC2C(=O)NC(C(C)C(=O)O)C(=O)NC(CC(=O)O)C(=O)NCC(=O)NC(CC(=O)O)C(=O)NCC(=O)NC(C(C)NC(=O)CCN)C(=O)NC(C(C)C)C(=O)N2CCCC2C(=O)NC1C (stereo not drawn) [Compound 147, C15-Amphomycin-9-(β-Ala)] | 1 mg/L | 1.6 h | 1.6 h | 1.9 h | 1.0 h | 4.58 h | – | 1.1 to 1.8 mg/kg | – |
| CCCCCCCCCCCCCCC(=O)NC(CC(=O)O)C(=O)NC1C(=O)N2CCCCC2C(=O)NC(C(C)C(=O)O)C(=O)NC(CC(=O)O)C(=O)NCC(=O)NC(CC(=O)O)C(=O)NCC(=O)NC(C(C)NC(=O)CN(C)C(=O)[C@@H](N)CCCCN)C(=O)NC(C(C)C)C(=O)N2CCCC2C(=O)NC1C (stereo partly shown) [Compound 199, C15-Amphomycin-9-Sar-Lys] | – | – | – | – | – | – | 200 to 400 mg/kg | – | 0.5 to 1 mg/L |
